Assay [1] relates to Pfa1 Gpx4−/− overexpressing hFSP1 WT, hFSP1 F360L and mFSP1 WT. Kind of assay: Cell viability response to N-myristoyltransferase inhibitor IMP-1088. Format: cell-based, murine. As to the method:
(§1) Cell Lines. 4-hydroxytamoxifen (TAM)-inducible Gpx4^−/− murine immortalized fibroblasts (Pfa1) were reported previously. These cells harbor two loxP-flanked Gpx4 alleles and stably express TAM inducible Cre recombinase allowing the genetic deletion of Gpx4 at will. For all experiments using Gpx4^−/− the well were treated with 4-hydroxitamoxifen (TAM) 1 µM. All cells were cultured with were cultured in DMEM-high glucose (4.5 g glucose/L) with 10% fetal bovine serum (FBS), Glutamax, and 1% penicillin/streptomycin (Gibco, Thermo Fischer) at 37 °C with 5% CO2 and verified to be negative for mycoplasma.
(§2) Cell viability assays. Alamar Blue method: Cells were seeded on 96-well plates (2000 cells per well) and treated with the compounds RSL3, iFSP1 and (liproxstatin-1) after plating. Cell viability was assessed 48 h (unless stated otherwise) after treatment using Alamar Blue as an indicator of viable cells. Alamar blue solution was made by dissolving of 1 g resazurin sodium salt (Thermo Fischer) in 200 mL sterile PBS and sterile filtrated through a 0.22 µm filter. Stock solutions were stored at 4 °C. The working solution was made freshly by adding 200 µL of the stock solution to 25 mL growth media. After 2–4 h incubation time, viability was estimated by measuring the fluorescence using a 540/35 excitation filter and a 590/20 emission on a Spark® microplate reader (Tecan, Zürich, Switzerland).

Assay [2] has as its system Pfa1 Gpx4−/− cell line overexpressing hFSP1, mFSP1 and hFSP1 F360L mutants. Briefly: BODIPY 581/591 C11 oxidation (flow cytometry). Particulars: iFSP1 3 µM for 3 h with Lip-1; all conditions. Format: cell-based, murine. The procedure: In total, 150,000 cells per well were seeded on 6-well dishes one day prior to the experiment. […] Cells were incubated with C11-BODIPY (581/591) (1 μM) for 30 min at 37 °C before they were harvested by trypsinisation. Subsequently, cells were resuspended in 500 μL of fresh PBS (DPBS, Gibco) and analyzed using a 488-nm laser excitation laser and fluorescence recorded on a (FACS Canto II, BD Biosciences). Data was collected from the FL1 detector (C11-BODIPY, Invitrogen) with a 502LP and 530/30 BP filter. At least 20,000 events were analyzed per sample. Data was analyzed using FlowJo Software version 10.8.1.

Assay [3] concerns Pfa1 Gpx4−/− cells overexpressing human FSP1 (hFSP1). Briefly: Cell viability (Alamar blue), dose-response toxicity in Gpx4-knockout cells expressing hFSP1. Format: cell-based, murine. Conditions: cells treated with iFSP1. As to the method: as §1, §2
Codon-optimized Mus musculus (mouse) FSP1 (NP_001034283.1) and Homo sapiens (Human) FSP1 (NP_001185625.1) were synthesized by IDT as gBlocks^TM and subcloned into p442-IRES-blast vectors. The chimera constructs were generated based on the pairwise alignment between the gene of Homo sapiens (Human) and the Mus musculus (Mouse), all the chimeric constructs contain the murine isoform with one region exchanged to the human isoform. […]

The target in another assay is T1, hFSP1 WT (Homo sapiens, UniProt Q9BRQ8).
T1 construct: HisSUMO (cleaved yes); made in house; host or cells: E. coli BL21
T1 sequence (Q9BRQ8 1-373): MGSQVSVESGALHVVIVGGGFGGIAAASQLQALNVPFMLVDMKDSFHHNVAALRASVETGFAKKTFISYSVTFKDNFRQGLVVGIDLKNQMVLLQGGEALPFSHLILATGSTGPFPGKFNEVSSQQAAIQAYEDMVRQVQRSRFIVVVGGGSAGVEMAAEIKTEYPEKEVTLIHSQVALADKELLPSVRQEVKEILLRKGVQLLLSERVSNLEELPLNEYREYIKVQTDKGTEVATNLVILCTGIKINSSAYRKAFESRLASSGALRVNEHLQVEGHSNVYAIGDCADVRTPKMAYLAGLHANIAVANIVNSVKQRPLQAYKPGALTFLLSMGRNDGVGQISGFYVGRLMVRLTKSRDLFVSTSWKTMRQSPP
Briefly: Competition MST against pre-formed complex of hFSP1 WT and FSP1-Tracer. Format: binding. Particulars: hFSP1 WT 5 µM and FSP1-Tracer 5 nM pre-formed complex. As to the method: FSP1 (human isoform 1, UniProt Q9BRQ8-1) WT (hFSP1 WT) and F360L (hFSP1 F360L) were expressed in E.coli BL21 as HisSUMO fusion protein. Cells were grown in lysogeny broth medium at 18 °C and induced with 0.5 mM isopropyl-β-thiogalactoside at a cell density A600 of 0.6. Cells were collected after overnight expression by centrifugation, resuspended in lysis buffer ([…], 50 mM Tris-HCl pH 8, 1 mM TCEP, 20 mM imidazole, protease inhibitor, DNase) and lysed by sonication. Cell debris was removed by centrifugation (30,000 × g) at 4 °C for 30 min, after which an IMAC purification was performed. Briefly, a HisTrap crude FF (5 mL) column was equilibrated to lysis buffer, lysates were loaded via the sample pump and the column was then washed with 50 mL lysis buffer. During the elution with a gradient to 100% IMAC elution buffer (300 mM NaCl, 50 mM Tris-HCl pH 8, 1 mM TCEP, 400 mM imidazole) over 100 mL, 5 mL fractions were collected. The pooled fractions were dialysed overnight in the presence of SenP2 SUMO protease at a ratio of 40:1 FSP1:SenP2. Afterwards, a reverse IMAC purification was performed on a HisTrap crude FF (5 mL) column. IMAC eluates were analysed by SDS PAGE and concentrated to 15 mL (hFSP1 WT) and 5 mL (hFSP1 F360L), respectively. […] Pure fractions were pooled (C12—D11 for hFSP1 WT and C7—D4 for hFSP1 F360L), analysed by SDS-PAGE (Supplementary Fig. 4) and concentrated to 5.8 mL at 285.9 µM (hFSP1 WT) and 1.2 mL at 269.5 µM (FSP1 F360L), flash frozen in liquid N2 and stored at −80 °C.
An MST buffer consisting of 1× phosphate-buffered saline (PBS; 137 mM NaCl, 2.7 mM KCl, 10 mM Na2HPO4, 1.8 mM KH2PO4, pH 7.4) with 2 mM reduced L-Glutathione (GSH, Sigma Aldrich, product number G4251) and 0.05% (v/v) Tween 20 (ITW Reagents, molecular biology grade, product number A4974) was used for all MST measurements. […] KD values were determined by applying a Hill-fit to a plot of Fnorm vs. hFSP1 WT/F360L concentration. […]

In assay [4] the test system is Pfa1 cells overexpressing the mock, hFSP1 WT, hFSP1 F360L and mFSP1 WT. Briefly: Cell viability response to GPX4 inhibitor RSL3. Type of assay: cell-based, murine. Particulars: Alamar blue viability. As to the method: as §1, §2

The structures appear in SMILES notation.

Consider `Cc1nn(C)c(C)c1CCOc1c(-c2ccc3c(c2)c(CN(C)C)nn3C)ccc(F)c1F` [IMP-1088], for which, in assay [1], the “ferroptosis induction across FSP1 variants” value is given as “all mutants undergo ferroptosis similarly”.

`Clc1cccc(CN=C2Nc3ccccc3NC23CCNCC3)c1` [Lip-1, liproxstatin-1]: the “rescue of the iFSP1-induced increase in BODIPY-C11 signal” value in assay [2] is given as “could be rescued”. The “rescue from iFSP1-induced ferroptosis” value in assay [3] is reported as “rescuing the cells”.

Regarding `NC(=O)C1=CN(C2OC(COP(=O)(O)OP(=O)(O)OCC3OC(n4cnc5c(N)ncnc54)C(O)C3O)C(O)C2O)C=CC1` (centres unmarked) [NADH], the Ki at hFSP1 WT is 455 nM. In the case of `COC(=O)c1ccc([C@@H]2c3[nH]c4ccccc4c3C[C@@H](C(=O)OC)N2C(=O)CCl)cc1` [RSL3, (1 S,3 R)-RSL3], in assay [4], the “difference in response to the GPX4 inhibitor between cells overexpressing the FSP1 variants” value is listed as “no difference in response”.
